Data: ChEMBL document CHEMBL1201862, “PubChem BioAssay data set” (2004)
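Where inhibition never reached the appropriate level, the endpoint shown equals the highest concentration tested. Otherwise, values were interpolated linearly from a five-concentration, 48-hour dose response in 96-well plates. GI50 = concentration required for 50% inhibition of growth.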 Active and inactive are the calls of the source. Rule as the data show it: active = GI50 up to about 1.1 µM and inactive = higher. Numbered stars: 1 amine (or outer) side, 2 acyl side, 3 side chain; on linkers, the order of the positions; unused ones are H or OH. Bridge positions count the residues as written; N and C are the ends. Square brackets hold non-standard residues; d marks the D form. Peptide text beside a SMILES is read from it. I, II: the chains in the order shown. Actinocin(9to1) = Cc1c2oc3c(C)ccc(C(=O)[*:1])c3nc-2c(C(=O)[*:2])c(N)c1=O; X48 = O=C1CC(C(=O)[*:2])N([*:1])C1; NMeV = CN[CH](C(=O)O)C(C)C; Sar = CNCC(=O)O

How the values were obtained:
Assay in all cases: inhibition of tumour cell growth, NCI panel, 48 h
SR = test system: SR
HCC 2998 = test system: HCC 2998
SNB-75 = test system: SNB-75
NCI-H522 = test system: NCI-H522
PC-3 = test system: PC-3
SK-MEL-2 = test system: SK-MEL-2
SW-620 = test system: SW-620
HCT-116 = test system: HCT-116
HOP-92 = test system: HOP-92
CCRF-CEM = test system: CCRF-CEM
LOX IMVI = test system: LOX IMVI
SF-539 = test system: SF-539
SK-OV-3 = test system: SK-OV-3
HT-29 = test system: HT-29
SF-268 = test system: SF-268
KM12 = test system: KM12
RPMI-8226 = test system: RPMI-8226
NCI-H460 = test system: NCI-H460
A549 = test system: A549
HL-60 = test system: HL-60

Structure (SMILES) | GI50 (SR) | GI50 (HCC 2998) | GI50 (SNB-75) | GI50 (NCI-H522) | GI50 (PC-3) | GI50 (SK-MEL-2) | GI50 (SW-620) | GI50 (HCT-116) | GI50 (HOP-92) | GI50 (CCRF-CEM) | GI50 (LOX IMVI) | GI50 (SF-539) | GI50 (SK-OV-3) | GI50 (HT-29) | GI50 (SF-268) | GI50 (KM12) | GI50 (RPMI-8226) | GI50 (NCI-H460) | GI50 (A549) | GI50 (HL-60)
CC(C)(C)OC(=O)N(O)CCCn1cnc2c(N)ncnc21 | > 100 µM (inactive) | > 100 µM (inactive) | > 100 µM (inactive) | > 100 µM (inactive) | > 100 µM (inactive) | > 100 µM (inactive) | > 100 µM (inactive) | > 100 µM (inactive) | > 100 µM (inactive) | > 100 µM (inactive) | > 100 µM (inactive) | > 100 µM (inactive) | > 100 µM (inactive) | > 100 µM (inactive) | > 100 µM (inactive) | > 100 µM (inactive) | > 100 µM (inactive) | > 100 µM (inactive) | > 100 µM (inactive) | 
COc1cc(Cc2cnc(N)nc2N)cc(OC)c1OCCCNc1ccc([N+](=O)[O-])cc1 | 4.68 µM (inactive) | 14.5 µM (inactive) | 16.2 µM (inactive) | 13 µM (inactive) | 10.1 µM (inactive) | 15.5 µM (inactive) | 15.1 µM (inactive) | 12.6 µM (inactive) | 14.3 µM (inactive) | 9.35 µM (inactive) |  | 12.7 µM (inactive) | 31.5 µM (inactive) | 2.92 µM (inactive) | 22.9 µM (inactive) | 14.4 µM (inactive) |  | 7.48 µM (inactive) | 13 µM (inactive) | 
O=C(c1cc(Cl)ccc1Cl)N1CCN(C(=O)c2cc(Cl)ccc2Cl)CC1 | > 100 µM (inactive) | > 100 µM (inactive) | 33.1 µM (inactive) | 34.4 µM (inactive) | > 100 µM (inactive) |  | > 100 µM (inactive) | > 100 µM (inactive) | 67.1 µM (inactive) | > 100 µM (inactive) | > 100 µM (inactive) | > 100 µM (inactive) |  | > 100 µM (inactive) | > 100 µM (inactive) | > 100 µM (inactive) | > 100 µM (inactive) | > 100 µM (inactive) | > 100 µM (inactive) | > 100 µM (inactive)
CC1CC[C@@]2(OC1)OC1C[C@H]3[C@@H]4C/C(=N\N(C)C)[C@@]5(O)CC(O)CC[C@]5(C)[C@H]4CC[C@]3(C)C1[C@@H]2C (stereo partly drawn) | 22.5 µM (inactive) | 68.5 µM (inactive) |  |  | 33.7 µM (inactive) | 36.7 µM (inactive) | 55.8 µM (inactive) | 24.7 µM (inactive) | 98.2 µM (inactive) | 31.3 µM (inactive) | 42.5 µM (inactive) | 36 µM (inactive) | 76.6 µM (inactive) | 20 µM (inactive) | 58.7 µM (inactive) | 29.3 µM (inactive) | 41.6 µM (inactive) | 45.9 µM (inactive) | 48.6 µM (inactive) | 21.2 µM (inactive)
Cc1c2oc3c(C)ccc(C(=O)NC4C(=O)NC(C(C)C)C(=O)N5CC(=O)CC5C(=O)N(C)CC(=O)N(C)C(C(C)C)C(=O)OC4C)c3nc-2c(C(=O)NC2C(=O)NC(C(C)C)C(=O)N3CC(=O)CC3C(=O)N(C)CC(=O)N(C)C(C(C)C)C(=O)OC2C)c(N)c1=O (stereo not drawn) (I: TV[X48][Sar][NMeV] / II: TV[X48][Sar][NMeV]; ester I:1-I:C, II:1-II:C; linker I:N-II:N via Actinocin(9to1); configuration not given here) | 0.948 µM (active) | > 1 µM (active) |  |  | > 1 µM (active) | > 1 µM (active) | > 1 µM (active) | > 1 µM (active) | > 1 µM (active) | > 1 µM (active) | > 1 µM (active) | > 1 µM (active) | > 1 µM (active) | > 1 µM (active) |  |  | > 1 µM (active) | > 1 µM (active) | 0.253 µM (active) | > 1 µM (active)
C[N+](CCCl)(CCCl)Cc1cccc2cccc([N+](=O)[O-])c12 | 5.83 µM (inactive) |  | > 100 µM (inactive) | 73.1 µM (inactive) | 85.3 µM (inactive) | > 100 µM (inactive) | > 100 µM (inactive) | > 100 µM (inactive) | > 100 µM (inactive) | 73.6 µM (inactive) | 48.1 µM (inactive) | 94.8 µM (inactive) | > 100 µM (inactive) | 55.8 µM (inactive) | > 100 µM (inactive) | > 100 µM (inactive) | 40.5 µM (inactive) | 53.8 µM (inactive) | 97.3 µM (inactive) | 45.1 µM (inactive)
OCCc1ccsc1-c1sc(-c2cc(CCO)c(-c3sccc3CCO)s2)cc1CCO | 20.7 µM (inactive) | 12.5 µM (inactive) |  | 12.2 µM (inactive) | 11.8 µM (inactive) | 14.7 µM (inactive) | 31.2 µM (inactive) | 16.6 µM (inactive) | 11.6 µM (inactive) | 16.4 µM (inactive) | 5.45 µM (inactive) |  | 17.5 µM (inactive) |  | 5.42 µM (inactive) | 3.38 µM (inactive) | 5.05 µM (inactive) | 6.12 µM (inactive) | 29 µM (inactive) | 
